Test system: normal human lung fibroblasts
Experiment: Ribosomal profiling: translational efficiency in TGFβ-treated fibroblasts
Assay type: cell-based
Summary of the method: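 Cells lysed on ice after a cold PBS wash containing cycloheximide. Ribosome-protected fragments and total mRNA were prepared with the ARTseq kit and sequenced by RNA-Seq. Reads were trimmed, mapped to the human genome and counted uniquely over coding regions per gene, with low-count genes excluded before differential translational-efficiency analysis.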

TGFβ
change in translational profile of CTPS caused by TGFβ (ENSG00000171793, Control vs. TGFβ): D (D = <1.0 to 1.5)
Log2 TE RPS21 (ENSG00000171858, 5 replicates): 1.846
Log2 TE RPS7 (ENSG00000171863, 5 replicates): 1.549
Log2 TE QARS (ENSG00000172053, 5 replicates): 1.362
change in translational profile of QARS caused by TGFβ (ENSG00000172053, Control vs. TGFβ): D (D = <1.0 to 1.5)
Log2 TE RPL38 (ENSG00000172809, 5 replicates): 1.353
change in translational profile of RPL38 caused by TGFβ (ENSG00000172809, Control vs. TGFβ): E (E = <1.5 to 2.5)
Log2 TE HSPB7 (ENSG00000173641, 5 replicates): 1.292
change in translational profile of MRPL45 caused by TGFβ (ENSG00000174100, Control vs. TGFβ): D (D = <1.0 to 1.5)
Log2 TE EVX2 (ENSG00000174279, 5 replicates): 2.887
Log2 TE RPL4 (ENSG00000174444, 5 replicates): 1.688
change in translational profile of RPL4 caused by TGFβ (ENSG00000174444, Control vs. TGFβ): E (E = <1.5 to 2.5)
Log2 TE RPL15 (ENSG00000174748, 5 replicates): 1.254
change in translational profile of RPL15 caused by TGFβ (ENSG00000174748, Control vs. TGFβ): D (D = <1.0 to 1.5)
Log2 TE DES (ENSG00000175084, 5 replicates): 1.204
change in translational profile of DES caused by TGFβ (ENSG00000175084, Control vs. TGFβ): E (E = <1.5 to 2.5)
Log2 TE CST6 (ENSG00000175315, 5 replicates): 1.241
Log2 TE EIF3F (ENSG00000175390, 5 replicates): 1.29
change in translational profile of EIF3F caused by TGFβ (ENSG00000175390, Control vs. TGFβ): D (D = <1.0 to 1.5)
Log2 TE CLCF1 (ENSG00000175505, 5 replicates): 1.594
change in translational profile of CLCF1 caused by TGFβ (ENSG00000175505, Control vs. TGFβ): E (E = <1.5 to 2.5)
Log2 TE AMIGO3 (ENSG00000176020, 5 replicates): −1.314
change in translational profile of AMIGO3 caused by TGFβ (ENSG00000176020, Control vs. TGFβ): C (C = <−1.0 to −1.5)
Log2 TE C14orf49 (ENSG00000176438, 5 replicates): −1.044
change in translational profile of C14orf49 caused by TGFβ (ENSG00000176438, Control vs. TGFβ): C (C = <−1.0 to −1.5)
Log2 TE RPLP2 (ENSG00000177600, 5 replicates): 1.694
change in translational profile of RPLP2 caused by TGFβ (ENSG00000177600, Control vs. TGFβ): E (E = <1.5 to 2.5)
Log2 TE RPS27 (ENSG00000177954, 5 replicates): 1.429
change in translational profile of IMPDH2 caused by TGFβ (ENSG00000178035, Control vs. TGFβ): D (D = <1.0 to 1.5)
Log2 TE DNAJC22 (ENSG00000178401, 5 replicates): −1.189
change in translational profile of DNAJC22 caused by TGFβ (ENSG00000178401, Control vs. TGFβ): B (B = <−1.5 to −2.5)
Log2 TE YOD1 (ENSG00000180667, 5 replicates): 1.146
Log2 TE PGBD4 (ENSG00000182405, 5 replicates): 1.055
Log2 TE RPL35A (ENSG00000182899, 5 replicates): 1.627
change in translational profile of RPL35A caused by TGFβ (ENSG00000182899, Control vs. TGFβ): E (E = <1.5 to 2.5)
change in translational profile of LENG9 caused by TGFβ (ENSG00000182909, Control vs. TGFβ): D (D = <1.0 to 1.5)
change in translational profile of C22orf32 caused by TGFβ (ENSG00000183172, Control vs. TGFβ): D (D = <1.0 to 1.5)
Log2 TE CHEK2 (ENSG00000183765, 5 replicates): −1.457
change in translational profile of NPW caused by TGFβ (ENSG00000183971, Control vs. TGFβ): D (D = <1.0 to 1.5)
Log2 TE ALDH1A3 (ENSG00000184254, 5 replicates): −1.327
Log2 TE PDE4B (ENSG00000184588, 5 replicates): −2.021
change in translational profile of PDE4B caused by TGFβ (ENSG00000184588, Control vs. TGFβ): B (B = <−1.5 to −2.5)
Log2 TE CDCA2 (ENSG00000184661, 5 replicates): −1.573
Log2 TE 5-Sep (ENSG00000184702, 5 replicates): 1.209
change in translational profile of ROBO2 caused by TGFβ (ENSG00000185008, Control vs. TGFβ): C (C = <−1.0 to −1.5)
Log2 TE SEMA4B (ENSG00000185033, 5 replicates): −1.413
Log2 TE SH3BGR (ENSG00000185437, 5 replicates): 1.121
change in translational profile of PTCH1 caused by TGFβ (ENSG00000185920, Control vs. TGFβ): D (D = <1.0 to 1.5)
Log2 TE POLR1D (ENSG00000186184, 5 replicates): 1.23
change in translational profile of POLR1D caused by TGFβ (ENSG00000186184, Control vs. TGFβ): E (E = <1.5 to 2.5)
Log2 TE RPS23 (ENSG00000186468, 5 replicates): 1.302
Log2 TE DYNC2H1 (ENSG00000187240, 5 replicates): −1.228
change in translational profile of DYNC2H1 caused by TGFβ (ENSG00000187240, Control vs. TGFβ): B (B = <−1.5 to −2.5)
Log2 TE TET3 (ENSG00000187605, 5 replicates): 1.541
Log2 TE ZSCAN23 (ENSG00000187987, 5 replicates): −1.048
Log2 TE RPL14 (ENSG00000188846, 5 replicates): 1.745
change in translational profile of RPL14 caused by TGFβ (ENSG00000188846, Control vs. TGFβ): E (E = <1.5 to 2.5)
change in translational profile of LRRK2 caused by TGFβ (ENSG00000188906, Control vs. TGFβ): C (C = <−1.0 to −1.5)
Log2 TE ZNF33A (ENSG00000189180, 5 replicates): −1.058
Log2 TE KIAA0408 (ENSG00000189367, 5 replicates): −1.283
Log2 TE ZBTB44 (ENSG00000196323, 5 replicates): −1.222
Log2 TE NACA (ENSG00000196531, 5 replicates): 1.083
change in translational profile of NACA caused by TGFβ (ENSG00000196531, Control vs. TGFβ): E (E = <1.5 to 2.5)
Log2 TE ADH1B (ENSG00000196616, 5 replicates): −2.795
Log2 TE TOMM7 (ENSG00000196683, 5 replicates): 1.126
change in translational profile of LAMB3 caused by TGFβ (ENSG00000196878, Control vs. TGFβ): D (D = <1.0 to 1.5)
Log2 TE PCBP2 (ENSG00000197111, 5 replicates): 1.293
change in translational profile of PCBP2 caused by TGFβ (ENSG00000197111, Control vs. TGFβ): E (E = <1.5 to 2.5)
Log2 TE MAP3K5 (ENSG00000197442, 5 replicates): −2.0153
change in translational profile of MAP3K5 caused by TGFβ (ENSG00000197442, Control vs. TGFβ): B (B = <−1.5 to −2.5)
Log2 TE RPS26 (ENSG00000197728, 5 replicates): 1.09
Log2 TE RPL37A (ENSG00000197756, 5 replicates): 2.029
change in translational profile of RPL37A caused by TGFβ (ENSG00000197756, Control vs. TGFβ): E (E = <1.5 to 2.5)
Log2 TE RPL12 (ENSG00000197958, 5 replicates): 1.878
change in translational profile of RPL12 caused by TGFβ (ENSG00000197958, Control vs. TGFβ): E (E = <1.5 to 2.5)
Log2 TE DNM3 (ENSG00000197959, 5 replicates): −1.161
Log2 TE RPS4X (ENSG00000198034, 5 replicates): 1.534
Log2 TE LPAR1 (ENSG00000198121, 5 replicates): −1.448
change in translational profile of LPAR1 caused by TGFβ (ENSG00000198121, Control vs. TGFβ): C (C = <−1.0 to −1.5)
Log2 TE ZNF607 (ENSG00000198182, 5 replicates): −1.108
Log2 TE RPL23A (ENSG00000198242, 5 replicates): 1.395
change in translational profile of RPL23A caused by TGFβ (ENSG00000198242, Control vs. TGFβ): E (E = <1.5 to 2.5)
Log2 TE TPM2 (ENSG00000198467, 5 replicates): 1.077
change in translational profile of PLN caused by TGFβ (ENSG00000198523, Control vs. TGFβ): F (F = >2.5)
Log2 TE RPL10A (ENSG00000198755, 5 replicates): 1.51
change in translational profile of RPL10A caused by TGFβ (ENSG00000198755, Control vs. TGFβ): E (E = <1.5 to 2.5)
Log2 TE CES1 (ENSG00000198848, 5 replicates): 1.084
change in translational profile of CES1 caused by TGFβ (ENSG00000198848, Control vs. TGFβ): E (E = <1.5 to 2.5)
Log2 TE RPL39 (ENSG00000198918, 5 replicates): 1.536
change in translational profile of RPL39 caused by TGFβ (ENSG00000198918, Control vs. TGFβ): E (E = <1.5 to 2.5)
Log2 TE GPRASP1 (ENSG00000198932, 5 replicates): −1.239
Log2 TE RORB (ENSG00000198963, 5 replicates): −1.766
Log2 TE CARD16 (ENSG00000204397, 5 replicates): −1.076
change in translational profile of CARD16 caused by TGFβ (ENSG00000204397, Control vs. TGFβ): B (B = <−1.5 to −2.5)
Log2 TE MICA (ENSG00000204520, 5 replicates): 1.143
change in translational profile of MICA caused by TGFβ (ENSG00000204520, Control vs. TGFβ): E (E = <1.5 to 2.5)
Log2 TE GNB2L1 (ENSG00000204628, 5 replicates): 1.732
change in translational profile of GNB2L1 caused by TGFβ (ENSG00000204628, Control vs. TGFβ): E (E = <1.5 to 2.5)
Log2 TE RPS29 (ENSG00000213741, 5 replicates): 1.571
Log2 TE RPL17 (ENSG00000215472, 5 replicates): 1.299
change in translational profile of RPL17 caused by TGFβ (ENSG00000215472, Control vs. TGFβ): E (E = <1.5 to 2.5)
Log2 TE UBA52 (ENSG00000221983, 5 replicates): 1.125
Log2 TE BTBD19 (ENSG00000222009, 5 replicates): 1.524
Log2 TE RPL41 (ENSG00000229117, 5 replicates): 1.474
change in translational profile of RPL41 caused by TGFβ (ENSG00000229117, Control vs. TGFβ): E (E = <1.5 to 2.5)
Log2 TE RPS18 (ENSG00000231500, 5 replicates): 2.003
Log2 TE C17orf108 (ENSG00000232859, 5 replicates): −1.329
Log2 TE RPS28 (ENSG00000233927, 5 replicates): 1.937
Log2 TE ARPC1A (ENSG00000241685, 5 replicates): 1.288
change in translational profile of ARPC1A caused by TGFβ (ENSG00000241685, Control vs. TGFβ): D (D = <1.0 to 1.5)
Log2 TE IFITM10 (ENSG00000244242, 5 replicates): −1.299
Log2 TE FMN1 (ENSG00000248905, 5 replicates): −1.906
Log2 TE CHCHD10 (ENSG00000250479, 5 replicates): 2.519
change in translational profile of CHCHD10 caused by TGFβ (ENSG00000250479, Control vs. TGFβ): F (F = >2.5)
Log2 TE SEPP1 (ENSG00000250722, 5 replicates): −1.035
Log2 TE EEF1G (ENSG00000254772, 5 replicates): 1.551
change in translational profile of EEF1G caused by TGFβ (ENSG00000254772, Control vs. TGFβ): E (E = <1.5 to 2.5)
Log2 TE TEN1 (ENSG00000257949, 5 replicates): 1.361

Source: patent publication US9993494B2, “Compositions and methods for treating fibrotic disease” (eFFECTOR Therapeutics, Inc., priority 2014, dated 2018)
